Assay results reported in the NIST ThermoML archive (doi:10.1007/s10765-008-0535-5).

Assay: molar heat capacity at constant volume; wn = mass fraction of the nth substance listed
Settings: Liquid, Vacuum adiabatic calorimetry, w2 = 0.5111

FC(F)C(F)(F)F [pentafluoroethane] + FCF
Settings	molar heat capacity at constant volume [J/K/mol]
268.15 K, 3423 kPa	62.96
269.15 K, 4259 kPa	64.11
270.15 K, 5065 kPa	63.82
270.15 K, 5095 kPa	63.25
270.15 K, 5157 kPa	63.82
271.15 K, 5903 kPa	64.9
271.15 K, 5931 kPa	64.04
271.15 K, 5992 kPa	62.96
272.15 K, 6740 kPa	64.18
272.15 K, 6767 kPa	64.61
272.15 K, 6828 kPa	63.25
273.15 K, 7576 kPa	64.54
273.15 K, 7602 kPa	63.82
273.15 K, 7662 kPa	64.04
274.15 K, 8411 kPa	65.12
274.15 K, 8437 kPa	65.19
274.15 K, 8496 kPa	63.82
275.15 K, 9245 kPa	64.9
275.15 K, 9272 kPa	64.9
275.15 K, 9328 kPa	63.75
276.15 K, 10082 kPa	65.77
276.15 K, 10107 kPa	64.83
276.15 K, 10161 kPa	64.25
277.15 K, 10917 kPa	65.84
277.15 K, 10942 kPa	65.62
277.15 K, 10993 kPa	65.05
278.15 K, 11753 kPa	66.05
278.15 K, 11776 kPa	65.55
278.15 K, 11824 kPa	64.4
279.15 K, 12587 kPa	65.69
279.15 K, 12611 kPa	66.12
279.15 K, 12657 kPa	65.33
280.15 K, 13423 kPa	66.92
280.15 K, 13444 kPa	65.12
280.15 K, 13488 kPa	64.9
281.15 K, 14258 kPa	65.69
281.15 K, 14277 kPa	66.63
281.15 K, 14319 kPa	65.69
282.15 K, 15091 kPa	66.92
282.15 K, 15110 kPa	66.27
282.15 K, 15148 kPa	65.55
283.15 K, 15926 kPa	66.63
283.15 K, 15943 kPa	66.05
283.15 K, 15978 kPa	64.76
284.15 K, 16759 kPa	66.56
284.15 K, 16775 kPa	66.34
284.15 K, 16808 kPa	66.05
285.15 K, 17592 kPa	67.2
285.15 K, 17606 kPa	67.06
285.15 K, 17637 kPa	65.77
286.15 K, 18423 kPa	66.77
286.15 K, 18437 kPa	66.7
286.15 K, 18467 kPa	66.41
287.15 K, 19253 kPa	66.2
287.15 K, 19268 kPa	66.7
287.15 K, 19297 kPa	65.19
288.15 K, 20083 kPa	67.35
288.15 K, 20097 kPa	67.28
288.15 K, 20124 kPa	66.05
289.15 K, 20914 kPa	67.35
289.15 K, 20926 kPa	66.7
289.15 K, 20951 kPa	66.27
290.15 K, 21743 kPa	67.49
290.15 K, 21755 kPa	67.28
290.15 K, 21778 kPa	66.12
291.15 K, 22571 kPa	67.28
291.15 K, 22583 kPa	66.7
291.15 K, 22607 kPa	66.05
292.15 K, 23400 kPa	67.35
292.15 K, 23410 kPa	67.35
292.15 K, 23433 kPa	66.63
293.15 K, 24226 kPa	67.13
293.15 K, 24236 kPa	67.06
293.15 K, 24257 kPa	66.2
294.15 K, 25053 kPa	67.42
294.15 K, 25062 kPa	67.42
294.15 K, 25082 kPa	67.28
295.15 K, 25878 kPa	66.84
295.15 K, 25887 kPa	67.13
295.15 K, 25903 kPa	65.05
296.15 K, 5585 kPa	69.44
296.15 K, 5620 kPa	68.57
296.15 K, 5667 kPa	65.84
296.15 K, 26704 kPa	67.92
296.15 K, 26711 kPa	66.99
296.15 K, 26725 kPa	66.48
297.15 K, 6213 kPa	68.72
297.15 K, 6246 kPa	68.86
297.15 K, 6292 kPa	68.14
297.15 K, 27528 kPa	67.28
297.15 K, 27534 kPa	66.63
297.15 K, 27546 kPa	66.2
298.15 K, 6841 kPa	70.08
298.15 K, 6872 kPa	68.28
298.15 K, 6917 kPa	67.78
298.15 K, 28352 kPa	66.99
298.15 K, 28357 kPa	66.84
298.15 K, 28366 kPa	65.48
299.15 K, 7469 kPa	69.08
299.15 K, 7499 kPa	69.29
299.15 K, 7541 kPa	67.28
299.15 K, 29176 kPa	67.56
299.15 K, 29179 kPa	67.49
299.15 K, 29186 kPa	66.05
300.15 K, 8097 kPa	69.15
300.15 K, 8124 kPa	67.85
300.15 K, 8166 kPa	68.07
300.15 K, 29998 kPa	66.56
300.15 K, 29999 kPa	65.55
300.15 K, 30003 kPa	66.7
301.15 K, 8725 kPa	68.57
301.15 K, 8750 kPa	68.07
301.15 K, 8791 kPa	67.92
302.15 K, 9353 kPa	68.14
302.15 K, 9377 kPa	68.86
302.15 K, 9417 kPa	66.99
303.15 K, 9980 kPa	68.57
303.15 K, 10003 kPa	68.28
303.15 K, 10042 kPa	67.2
304.15 K, 10607 kPa	68.72
304.15 K, 10629 kPa	66.92
304.15 K, 10667 kPa	67.49
305.15 K, 11234 kPa	66.92
305.15 K, 11256 kPa	67.42
305.15 K, 11292 kPa	66.05
306.15 K, 11861 kPa	68.14
306.15 K, 11881 kPa	66.99
306.15 K, 11917 kPa	66.2
307.15 K, 12487 kPa	66.77
307.15 K, 12507 kPa	67.28
307.15 K, 12541 kPa	66.92
308.15 K, 13114 kPa	67.06
308.15 K, 13133 kPa	67.35
308.15 K, 13165 kPa	65.84
309.15 K, 13740 kPa	66.92
309.15 K, 13758 kPa	67.13
309.15 K, 13790 kPa	66.12
310.15 K, 14367 kPa	67.13
310.15 K, 14384 kPa	66.05
310.15 K, 14414 kPa	65.91
311.15 K, 14992 kPa	66.48
311.15 K, 15009 kPa	66.2
311.15 K, 15038 kPa	65.84
312.15 K, 15618 kPa	64.9
312.15 K, 15634 kPa	67.13
312.15 K, 15662 kPa	65.26
313.15 K, 16243 kPa	66.7
313.15 K, 16259 kPa	66.2
313.15 K, 16286 kPa	65.26
314.15 K, 16869 kPa	66.2
314.15 K, 16883 kPa	65.98
314.15 K, 16910 kPa	65.26
315.15 K, 17493 kPa	65.77
315.15 K, 17507 kPa	65.84
315.15 K, 17534 kPa	64.54
316.15 K, 18118 kPa	65.77
316.15 K, 18131 kPa	65.12
316.15 K, 18158 kPa	64.9
317.15 K, 18743 kPa	65.48
317.15 K, 18755 kPa	64.33
317.15 K, 18781 kPa	64.47
318.15 K, 19367 kPa	64.97
318.15 K, 19379 kPa	64.9
318.15 K, 19404 kPa	64.25
319.15 K, 19990 kPa	65.05
319.15 K, 20003 kPa	65.12
319.15 K, 20027 kPa	64.61
320.15 K, 20613 kPa	63.75
320.15 K, 20627 kPa	65.77
320.15 K, 20649 kPa	64.33
321.15 K, 21236 kPa	64.69
321.15 K, 21250 kPa	64.69
321.15 K, 21272 kPa	63.61
322.15 K, 21858 kPa	64.69
322.15 K, 21873 kPa	63.9
322.15 K, 21894 kPa	64.04
323.15 K, 22480 kPa	63.9
323.15 K, 22495 kPa	63.9
323.15 K, 22516 kPa	63.61
324.15 K, 23103 kPa	64.33
324.15 K, 23117 kPa	64.97
324.15 K, 23137 kPa	62.6
325.15 K, 23725 kPa	64.25
325.15 K, 23738 kPa	63.39
325.15 K, 23758 kPa	63.1
326.15 K, 24347 kPa	64.33
326.15 K, 24361 kPa	64.9
326.15 K, 24379 kPa	62.74
327.15 K, 24970 kPa	63.75
327.15 K, 24981 kPa	63.1
327.15 K, 25000 kPa	63.68
328.15 K, 25590 kPa	62.96
328.15 K, 25601 kPa	63.1
328.15 K, 25620 kPa	62.17
